Assay results published in patent US8906925B2, “Pyrido[4,3-B]indoles containing rigid moieties” (Medivation Technologies, Inc., priority 2008, dated 2014).
Where “and” joins values, the source holds several entries; their conditions need not be identical. Equal entries are not always repeated.

Legend:
[1] = target: T1, human recombinant serotonin 5-HT7 receptor (Homo sapiens, UniProt P34969); test: 5-HT7 antagonist functional assay (cAMP, HTRF, CHO cells); type: cell-based; details: vs 100 nM 5-HT
T1 construct: expressed in transfected cells; host or cells: CHO cells
Description: To determine for agonist or antagonist activity of compounds of the invention in functional assays, human recombinant serotonin 5-HT2A receptor expressed in human embryonic kidney (HEK-293) cells (Jerman J C, Brough S J, Gager T, Wood M, Coldwell M C, Smart D and Middlemiss D N, Eur J Pharmacol, 414: 23-30, 2001) or human recombinant serotonin 5-HT7 receptor expressed in CHO cells (Adham, et al. J. Pharmacol. Exp. Ther. 287:508-514, 1998) was used. Cells were suspended in DMEM buffer, and distributed in microplates. For the 5-HT2A assay, a cytoplasmic calcium fluorescent indicator which varies proportionally to the free cytosolic Ca^2+ ion concentration was mixed with probenicid in HBSS buffer complemented with 20 mM Hepes (pH 7.4), added into each well and equilibrated with the cells for 30 min. at 37° C. followed by 30 min. at 22° C. For the 5-HT7 assay, the reaction product was cAMP, detected by HTRF.
The standard reference antagonist was ketanserin (5-HT2A) or mesulergine (5-HT7), which was tested in each experiment at several concentrations to generate a concentration-response curve from which its IC50 value was calculated. Compounds were screened at […] or lower, using DMSO as vehicle.

[2] = target: human recombinant dopamine D2S receptor (Homo sapiens, UniProt P14416); test: Dopamine D2S [35S]GTPγS functional assay (SPA, CHO membranes); type: biochemical; details: read-out: D2S GTPgS % Inhibition
Method: To determine for agonist or antagonist activity of compounds of the invention in functional assays, human recombinant dopamine D2S receptor stably expressed in Chinese hamster ovary (CHO) cells (Gilliland S L and Alper R H. Naunyn-Schmiedeberg's Archives of Pharmacology. 361: 498, 2000) was used. Compounds of invention were pre-incubated with the membranes (0.05 mg/mL) and 3 µM GDP in modified HEPES buffer (20 mM HEPES, pH 7.4, 100 mM NaCl, 10 mM MgCl2, 1 mM DTT, 1 mM EDTA) for 20 min. and Scintillation Proximity Assay (SPA) beads were then added for another 60 min. at 30° C. The reaction was initiated by 0.3 nM [^35S]GTPγS for an additional 30 min. incubation period. […] Compounds were screened at […] or lower, using 0.4% DMSO as vehicle. Assay results are presented as the percent response of specific binding in Table 13.

[3] = tested on: mice (e.g., C57Bl/6J); test: Amphetamine-induced hyperactivity, open field test; type: in vivo, mouse; details: amphetamine (4 mg/kg), 90 min. test
Method: Male mice (various strains e.g., C57Bl/6J) from appropriate supplier (for example Jackson Laboratories, Bar Harbor, Me.) were used. Mice typically were received at 6-weeks of age. Mice were acclimated to the colony room for at least two weeks prior to testing. During the period of acclimation, mice were examined on a regular basis, handled, and weighed to assure adequate health and suitability and maintained on a 12 h/12 h light/dark cycle. The room temperature was maintained between 20 and 23° C. with a relative humidity maintained between 30% and 70%. Food and water were provided ad libitum for the duration of the study. In each test, animals were randomly assigned between treatment groups.
The open field test (OF) was used to assess motor activity. […] Horizontal activity (distance traveled) and vertical activity (rearing) were measured from consecutive beam breaks.
On the day of testing, animals were brought to the experimental room for at least 1 h acclimation prior to start of treatment. […] The time of administration of test compound to each animal was recorded. Baseline activity was recorded for […]. following which mice received amphetamine (4 mg/kg) or water and were placed back in the OF chambers for a 60-min. session. […]
Data were analyzed by analysis of variance (ANOVA) followed by post-hoc comparisons with Fisher Tests when appropriate. […]

[4] = target: histamine receptor H1 (Homo sapiens, UniProt P35367); test: Inhibition of binding of a ligand (Pyrilamine) to histamine receptor H1; details: as compared to the unsubstituted vinyl counterpart (106 vs compound 415; 85 vs compound 95)
Method: The number and extent of undesirable side effects increases with increasing affinity for the H1 receptor Thus, in one aspect, compounds of the formulae herein display reduced, low or no affinity to histamine receptor H1. […] Inhibition of binding of a ligand to H1 for all variations detailed herein is determined by a suitable assay known in the art such as the assay described herein. […] In one variation, compounds of the formulae herein inhibit binding of a ligand to H1 by between about 50% to about 80%. […] In one variation, compounds of the formulae herein inhibit binding of Pyrilamine to H1 as determined in the assay described herein. In a further variation, percent inhibition of binding to H1 is measured by assays detailed herein.
The binding properties of compounds disclosed herein to a panel of aminergic G protein-coupled receptors including adrenergic receptors, dopamine receptors, serotonin receptors, histamine receptors and an imidazoline receptor may be determined. Binding properties may be assessed by methods known in the art, such as competitive binding assays. In one variation, compounds are assessed by the binding assays detailed herein. […]
In one aspect, DDT compounds display low affinity to histamine receptor H1. […] Inhibition of binding of a ligand to H1 for all variations detailed herein is determined by a suitable assay known in the art such as the assay described herein. […]

Chain of human recombinant dopamine D2S receptor (P14416 1-414 isoform P14416-2): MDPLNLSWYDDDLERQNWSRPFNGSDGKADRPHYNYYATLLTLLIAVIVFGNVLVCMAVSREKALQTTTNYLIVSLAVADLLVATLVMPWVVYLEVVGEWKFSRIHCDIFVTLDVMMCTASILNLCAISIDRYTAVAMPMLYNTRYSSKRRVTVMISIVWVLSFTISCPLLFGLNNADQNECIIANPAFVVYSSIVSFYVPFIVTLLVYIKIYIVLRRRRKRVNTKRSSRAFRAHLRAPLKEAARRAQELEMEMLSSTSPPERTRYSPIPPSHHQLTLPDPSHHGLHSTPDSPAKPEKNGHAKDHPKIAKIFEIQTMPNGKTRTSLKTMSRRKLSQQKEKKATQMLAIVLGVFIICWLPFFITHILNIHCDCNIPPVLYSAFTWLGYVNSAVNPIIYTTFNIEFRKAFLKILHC
T1 sequence (P34969 whole entry): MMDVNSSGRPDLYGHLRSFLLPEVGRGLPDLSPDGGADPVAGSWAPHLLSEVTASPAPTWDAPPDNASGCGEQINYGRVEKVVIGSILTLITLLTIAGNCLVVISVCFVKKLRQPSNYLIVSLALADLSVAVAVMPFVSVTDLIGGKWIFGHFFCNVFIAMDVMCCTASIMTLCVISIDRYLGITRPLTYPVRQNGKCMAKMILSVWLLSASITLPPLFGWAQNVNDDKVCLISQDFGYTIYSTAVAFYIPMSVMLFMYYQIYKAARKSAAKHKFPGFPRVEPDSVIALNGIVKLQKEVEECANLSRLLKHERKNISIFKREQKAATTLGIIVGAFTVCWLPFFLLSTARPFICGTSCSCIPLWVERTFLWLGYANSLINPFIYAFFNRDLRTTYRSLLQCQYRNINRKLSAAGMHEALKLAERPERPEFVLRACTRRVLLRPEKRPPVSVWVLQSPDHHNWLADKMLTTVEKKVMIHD
Chain of histamine receptor H1 (P35367 whole entry): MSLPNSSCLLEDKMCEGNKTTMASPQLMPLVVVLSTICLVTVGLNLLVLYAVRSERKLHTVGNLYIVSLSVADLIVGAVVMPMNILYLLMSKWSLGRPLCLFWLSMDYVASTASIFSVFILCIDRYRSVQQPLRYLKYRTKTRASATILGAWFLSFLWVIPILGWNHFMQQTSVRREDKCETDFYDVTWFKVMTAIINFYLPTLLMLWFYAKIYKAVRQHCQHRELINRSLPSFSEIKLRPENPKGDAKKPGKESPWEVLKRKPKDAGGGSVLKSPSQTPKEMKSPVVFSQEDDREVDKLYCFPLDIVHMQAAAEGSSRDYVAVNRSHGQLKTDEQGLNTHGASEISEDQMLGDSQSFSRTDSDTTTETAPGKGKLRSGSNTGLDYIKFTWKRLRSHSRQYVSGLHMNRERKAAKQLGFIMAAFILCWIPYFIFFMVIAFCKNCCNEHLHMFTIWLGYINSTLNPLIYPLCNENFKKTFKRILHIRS

Row | SMILES | IC50 [1] | inhibition at 0.001 µM ([2]; conc. 1 nM) [%] | inhibition at 0.003 µM ([2]; conc. 3 nM) [%] | inhibition at 0.01 µM ([2]; conc. 10 nM) [%] | inhibition at 0.03 µM ([2]; conc. 30 nM) [%] | inhibition at 0.1 µM ([2]; conc. 100 nM) [%] | Total Distance Traveled (center+periphery), ANOVA [3] | Total Rearing (center+periphery), ANOVA [3] | binding affinity to H1 [4]
1 | C/C(=C\n1c2c(c3cc(Cl)ccc31)CN(C)CC2)c1ccc(F)cc1 [Compound 83, (E)-8-chloro-5-(2-(4-fluorophenyl)prop-1-enyl)-2,3,4,5-tetrahydro-2-methyl-1H-pyrido[4,3-b]indole] | 460 nM and 770 nM | 15 | 45 | 56 | 74 | 91 | significant treatment effect | significant treatment effect | –
2 | C/C(=C\n1c2c(c3cc(Cl)ccc31)CN(C)CC2)c1ccccc1 [compound 106, (E)-8-chloro-2,3,4,5-tetrahydro-2-methyl-5-(2-phenylprop-1-enyl)-1H-pyrido[4,3-b]indole] | – | – | – | – | – | – | – | – | lower binding affinity to H1
